Patent US10738035B2, “Hepatitis B antiviral agents” (Enanta Pharmaceuticals, Inc., priority 2015, dated 2020)

Columns and labels:
[1] = Compound toxicity, ATPLite (CC50); conditions: human, HepAD38 cells
Experimental: (§1) Briefly, cells are passaged upon attaining confluency in DMEM/F12 media in the presence of 10% FBS, Penn/Strep, 250 μg/mL G418, and 1 μg/ml tetracycline. Novel compounds are screened by first washing cells three times with PBS to remove tetracycline, and plating in 96 well plates at 35,000 cells/well. Compounds dissolved in DMSO are then diluted 1:200 into wells containing cells. Five days after compound addition, material is harvested for analysis.
Compound toxicity is evaluated by seeding cells at 15,000 cells/well and treating with compound as described above.

hepatitis B virus (HBV) = assay: HepAD38 antiviral assay (viral product accumulation, EC50); conditions: HePAD38, 120 h, read-out: HepAD38 EC50
Experimental: as §1
On harvest day, virion DNA is obtained by lysing with Sidestep Lysis and Stabilization Buffer and then quantified via quantitative real time PCR. Commercially available ELISA kits are used to quantitate the viral proteins HBsAg (Alpco) or HbeAg (US Biological) by following the manufacturer's recommended protocol after diluting samples to match the linear range of their respective assays.

Compound: Cn1nc(NC(=O)N2CCC(O)CC2)cc1C(=O)Nc1ccc(-c2ccccc2)cc1 [Example 70]
- CC50 at 3 days [1]: > 30 µM
- EC50 (hepatitis B virus (HBV)): > 10 µM

Compound: O=C(Nc1cc(F)c(F)c(F)c1)c1ccc(Cl)c(NS(=O)(=O)N2CCC(O)CC2)c1 [Example 71]
- CC50 at 3 days [1]: > 30 µM
- EC50 (hepatitis B virus (HBV)): 1 to 10 µM

Compound: COC(=O)c1ccc(NC(=O)c2cc(NC(=O)N3CCC(O)CC3)nn2C)cc1 [Example 72]
- CC50 at 3 days [1]: > 30 µM
- EC50 (hepatitis B virus (HBV)): > 10 µM

Compound: COC(=O)c1cccc(NC(=O)c2cc(NC(=O)N3CCC(O)CC3)nn2C)c1 [Example 73]
- CC50 at 3 days [1]: > 30 µM
- EC50 (hepatitis B virus (HBV)): > 10 µM

Compound: Cn1nc(NC(=O)N2CCC(O)CC2)cc1C(=O)Nc1ccc(C(=O)O)cc1 [Example 74]
- CC50 at 3 days [1]: > 30 µM
- EC50 (hepatitis B virus (HBV)): > 10 µM
